Where “and” joins values, the source holds several entries; their conditions need not be identical. Equal values may be shown once.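 Values below derive from 48-hour exposures of cells grown in 96-well plates, with endpoints linearly interpolated between the two concentrations bracketing the appropriate inhibition level. The concentration for 50% growth inhibition is given as GI50. TGI: total growth inhibition.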
Columns and labels:
Test in all cases: NCI-60 cell line screen, 48 h
M14 melanoma = tested on: M14 melanoma
SF-268 CNS = tested on: SF-268 CNS
UACC-257 melanoma = tested on: UACC-257 melanoma
A549 NSCLC = tested on: A549 NSCLC
SK-OV-3 ovarian = tested on: SK-OV-3 ovarian
IGROV1 ovarian = tested on: IGROV1 ovarian
HOP-92 NSCLC = tested on: HOP-92 NSCLC
SK-MEL-5 melanoma = tested on: SK-MEL-5 melanoma
BT-549 breast = tested on: BT-549 breast
MDA-MB-435 = tested on: MDA-MB-435

Structure (SMILES)	TGI (M14 melanoma)	TGI (SF-268 CNS)	TGI (UACC-257 melanoma)	TGI (A549 NSCLC)	TGI (SK-OV-3 ovarian)	TGI (IGROV1 ovarian)	TGI (HOP-92 NSCLC)	TGI (SK-MEL-5 melanoma)	GI50 (M14 melanoma)	GI50 (SK-MEL-5 melanoma)	GI50 (SF-268 CNS)	GI50 (UACC-257 melanoma)	GI50 (A549 NSCLC)	GI50 (SK-OV-3 ovarian)	GI50 (BT-549 breast)	TGI (BT-549 breast)	GI50 (IGROV1 ovarian)	GI50 (HOP-92 NSCLC)	GI50 (MDA-MB-435)	TGI (MDA-MB-435)
COc1ccc2nc3ccccc3c(NCCN(CCCl)CCCl)c2c1	2.28 µM	5.74 µM	3.99 µM	10.7 µM	5.05 µM	4.34 µM	2.43 µM													
N#CCCN(c1ccc(C=O)cc1)S(=O)(=O)c1ccccc1	> 100 µM	> 100 µM	> 100 µM	> 100 µM	> 100 µM	> 100 µM		> 100 µM												
CSC1=Nc2ccccc2N=C(c2ccccc2)C1	> 100 µM	> 100 µM	> 100 µM	> 100 µM	> 100 µM	> 100 µM	85.3 µM	> 100 µM												
Nc1n[nH]c2ccc([C@@H]3Nc4ccc5cn[nH]c5c4[C@H]4C5CCC(C5)[C@@H]34)cc12 (some centres undefined)	> 100 µM	> 100 µM	> 100 µM	> 100 µM	> 100 µM	62.2 µM	> 89.4 µM	3.45 µM	0.317 µM	0.355 µM	2.59 µM	12.5 µM	0.541 µM	0.831 µM	0.755 µM	> 65.8 µM	0.579 µM	2.14 µM		
O=C(CC(=O)c1cccc([N+](=O)[O-])c1)C(=O)Nc1ccccc1	> 100 µM	> 100 µM	> 100 µM	> 100 µM		> 100 µM	> 100 µM	> 100 µM												
CCN(CC)C(=O)CC12CCCCC1=Nc1ccccc12 (centres undefined)	> 100 µM		> 100 µM	> 100 µM	> 100 µM	> 100 µM	> 100 µM	> 100 µM												
CC[As](CC)SCC1OC(OC(C)=O)C(OC(C)=O)C(OC(C)=O)C1OC(C)=O (centres undefined)	24.7 µM	25.8 µM	28.6 µM	39.6 µM	29.3 µM	33.8 µM	13.2 µM	28.4 µM												
O=C(CC1(O)C(=O)Nc2ccccc21)c1ccccc1O (centres undefined)	> 100 µM	> 100 µM	> 100 µM	> 100 µM	> 100 µM	> 100 µM	> 100 µM	> 100 µM												
CCCCCCCCCC[C@H](O)[C@H]1CC[C@@H]([C@@H](O)CC[C@H](O)[C@@H]2CCC(CCCCCCC[C@@H](O)CC3=C[C@H](C)OC3=O)O2)O1 (some centres undefined)	2.93 µM and 9.75 µM		4.47 µM and 13.8 µM	18.5 µM		4.99 µM and 21.1 µM	4.34 µM and 16 µM	3.48 µM and 3.24 µM	2.73 µM		8.17 µM	0.921 µM	2.89 µM				5.17 µM	1.99 µM	5.07 µM	
CN(C)c1ccc(/C=c2/c3cc(O)ccc3n3c2cc(-c2ccccc2)[n+]3C)cc1	2.89 µM	1.55 µM	3.07 µM	> 100 µM	> 100 µM	1.47 µM	3.9 µM	2.04 µM						6.13 µM						2.29 µM
CC(=O)O[C@@H]1CC[C@@]2(C)C(=O)C34C[C@@]5(C)C([C@@H](C)CCCC(C)C)CCC5(C)[C@](O)(O3)C(=O)[C@H]4C2C1(C)C (some centres undefined)	25.8 µM	34.9 µM	32.3 µM	29.1 µM	32.4 µM	31.6 µM	34.5 µM	28.4 µM												
Clc1ccccc1C1SCc2nc3ccccc3n21 (centres undefined)	59.9 µM	> 100 µM		> 100 µM	82.7 µM	> 100 µM	31.3 µM	33.7 µM												
CC1=CC[C@@H](C(C)(C)O)C[C@@H]1O	> 5000 µM	> 5000 µM	> 5000 µM	> 5000 µM	> 5000 µM	> 5000 µM	> 5000 µM	> 5000 µM												
CC1C(O)=C(O)c2ccccc2N1O (centres undefined)	> 100 µM	> 100 µM	> 100 µM	> 100 µM	> 100 µM	> 100 µM	> 100 µM	> 100 µM												
COC(=O)C1=CC(=O)[C@@H]2CCCC[C@H]12	> 100 µM	> 100 µM	> 100 µM	> 100 µM	> 100 µM															
N#Cc1cccc(C2C(=O)c3ccc(C(=O)c4ccc5c(c4)C(=O)N(c4ccc(Oc6ccc(N7C(=O)c8ccc(C(=O)c9ccc%10c(c9)C(=O)N(c9cccc(C#N)c9)C%10=O)cc8C7=O)cc6)cc4)C5=O)cc3C2=O)c1 (centres undefined)	> 100 µM	> 100 µM	> 100 µM	> 100 µM		> 100 µM	> 100 µM	> 100 µM												
N#C/C(=C\c1ccc[nH]1)C(=O)c1ccccc1	> 100 µM	> 100 µM	> 100 µM	> 100 µM	> 100 µM		> 100 µM	> 100 µM												

Structure (SMILES)	TGI (M14 melanoma)	TGI (SF-268 CNS)	TGI (UACC-257 melanoma)	TGI (A549 NSCLC)	TGI (SK-OV-3 ovarian)	TGI (IGROV1 ovarian)	TGI (HOP-92 NSCLC)	TGI (SK-MEL-5 melanoma)	GI50 (M14 melanoma)	GI50 (SK-MEL-5 melanoma)	GI50 (SF-268 CNS)	GI50 (UACC-257 melanoma)	GI50 (A549 NSCLC)	GI50 (SK-OV-3 ovarian)	GI50 (BT-549 breast)	TGI (BT-549 breast)	GI50 (IGROV1 ovarian)	GI50 (HOP-92 NSCLC)	GI50 (MDA-MB-435)	TGI (MDA-MB-435)
Fc1ccc(N=C2C=CC(=Nc3ccc(F)cc3)c3ccccc32)cc1	> 100 µM	> 100 µM	> 100 µM	> 100 µM	> 100 µM	> 100 µM	> 100 µM	> 100 µM												
O=C1c2ccc3c4c(ccc(c24)C(=O)N1CCNCc1ccccc1)C(=O)N(CCNCc1ccccc1)C3=O	3.27 µM	14.7 µM	3.45 µM	8.77 µM	45.4 µM	4.27 µM	33.2 µM	2.68 µM	1.85 µM	1.39 µM	2.76 µM	1.69 µM	1.87 µM	20.9 µM	2.45 µM	6.19 µM	1.72 µM	7.66 µM		
COc1cc(CC(=O)O)c([N+](=O)[O-])cc1OC	> 100 µM	> 100 µM	> 100 µM	> 100 µM	> 100 µM	> 100 µM	> 100 µM													
COc1ccc([C@@H]2OC(=O)C3C2C(=O)O[C@H]3c2ccc(OC)cc2)cc1 (some centres undefined)			> 100 µM	> 100 µM	> 100 µM	> 100 µM														
[CH3][Hg]/[N]=C(/N)NC#N	22.9 µM	33.3 µM	17.4 µM	38.4 µM	30.8 µM	36.6 µM	3.84 µM	21.1 µM	10.6 µM	8.9 µM	16.3 µM	5.1 µM	17.3 µM	16.9 µM			18.9 µM	1.78 µM		
Cc1cc(Cl)cc2c1NC(=O)C2(O)C(C(=O)c1ccccc1)c1ccccc1 (centres undefined)	> 100 µM and 55.5 µM	> 100 µM and 95.3 µM	> 100 µM and 52.1 µM	> 100 µM and 51.5 µM	> 100 µM	83 µM	78.7 µM and > 100 µM	45.4 µM	90.9 µM and 22.6 µM		84.3 µM and 34.8 µM	57 µM and 19.9 µM	97.1 µM and 22.6 µM					17.2 µM and 43.3 µM		
Cc1cc(C)c(/C=N/NS(=O)(=O)c2ccccc2)c(C)c1	> 100 µM	> 100 µM	> 100 µM	> 100 µM	> 100 µM	> 100 µM	95.9 µM	> 100 µM												
COC(=O)C(C(=O)C(=O)Nc1ccccc1C)c1nc2ccc([N+](=O)[O-])cc2[nH]c1=O (centres undefined)	> 100 µM	> 100 µM	> 100 µM	> 100 µM	> 100 µM	> 100 µM		> 100 µM												
COc1ccc(/C=C/C(=O)/C=C(O)/C=C/c2ccc(OC)c(OC)c2)cc1OC	27.7 µM	> 100 µM	64.8 µM	> 100 µM	> 100 µM	> 100 µM	98.4 µM	12.7 µM	5.88 µM	3.01 µM	4.77 µM	33.9 µM	37.9 µM	> 100 µM			3.43 µM	14.1 µM	3.32 µM	> 100 µM
CCc1ccccc1NC(=O)C(=O)C1C(=O)N(c2ccccc2)N=C1N (centres undefined)	> 100 µM	> 100 µM	> 100 µM	> 100 µM		> 100 µM	> 100 µM	> 100 µM												
CC(=O)Nc1ccc(C2=N/C(=C\c3ccc(Cl)cc3)C(=O)O2)cc1	56.2 µM	90.9 µM	> 100 µM	> 100 µM	> 100 µM	> 100 µM	> 100 µM	> 100 µM												
CCCCCCCCCCCCCCCCCC[S+](C)CC (centres undefined)	2.75 µM	2.88 µM			5.45 µM		4.5 µM		1.33 µM		1.18 µM			1.86 µM				1.38 µM	1.63 µM	3.47 µM
CC1(C)C(CC(=O)O)CCCC1CC(=O)O (centres undefined)	> 100 µM		> 100 µM	> 100 µM	> 100 µM	> 100 µM		> 100 µM								> 100 µM				> 100 µM
Cc1ccc(NC(=O)CC2SC(=Nc3ccc(Cl)cc3)NC2=O)cc1C (centres undefined)	31.2 µM	33.4 µM	29.4 µM	34.3 µM	> 66.1 µM	> 60.8 µM	27.5 µM	36.6 µM												
Cc1cc(C)nc(NS(=O)(=O)c2ccc(NC(=O)COC(=O)c3cccc4c(=O)c5ccccc5[nH]c34)cc2)n1	> 100 µM	> 100 µM	65.1 µM	> 100 µM	> 100 µM	> 100 µM	60.3 µM	> 100 µM												
CCOC(=O)C(=O)C(C#N)c1ccc(Cl)cc1 (centres undefined)	> 100 µM	> 100 µM	> 100 µM	> 100 µM	> 100 µM	> 100 µM	> 100 µM	> 100 µM												

Reference: PubChem BioAssay (NCI)
